The record followed here is PMC10630452, “The tumor-enriched small molecule gambogic amide suppresses glioma by targeting WDR1-dependent cytoskeleton remodeling” (Signal Transduction and Targeted Therapy, 2023).

Data set [1] deals with PDCs and GSCs. Description: Transwell cell invasion assay. The class given is cell-based. The following applies: 0.1 μM and 0.3 μM, 48–72 h. How it is done: First, cells were starved for 12 h. The top surface of the membrane in the upper transwell chamber was coated with Matrigel (dilution ratio, 1:100, Corning, USA) by incubation for 30 min. Cells were plated in the upper chamber with serum-free neurobasal medium containing the corresponding concentration of GA-amide, and 600 μL of neurobasal medium containing 10% FBS and the same concentration of GA-amide was added to the lower chamber for 24–72 h of culture. Next, the cells in the transwell chamber were fixed with 4% paraformaldehyde for 20 min. After noninvaded cells in the upper chamber were removed by wiping, the remaining cells were stained with 1% crystal violet staining solution for 20 min and washed with double-distilled water. Finally, cell invasion was evaluated by microscopy.

In data set [2] the test system is WDR1 knockout T2-4 and T12-1 cells. Description: Cell viability of WDR1 knockout PDCs. The class given is cell-based, human. Particulars: WDR1 knockout T2-4 and T12-1 versus sg-NC. How it is done:
The data are representative of 3 wells, scale bar: 500 μm. j Statistical results of the recovery of invasion.
For cell transfection, we first inserted the full-length cDNA encoding WDR1 and the WDR1 sequence with mutation of the four interaction sites into pcDNA3.1. Then, 293T cells were transiently transfected with these plasmids using Lipofectamine 3000 (Invitrogen). For cell transduction, WDR1 knockout and WDR1-overexpressing PDCs were generated by lentiviral transduction and selected by 1 µg/mL puromycin. All sg-WDR1 sequences are listed as follows: sg-WDR1 #2: 5′-[…]-3′, sg-WDR1 #3: 5′-[…]-3′, sg-WDR1 #4: 5′-[…]-3′, sg-WDR1 #5: 5′-[…]-3′. For cell transduction, CFL1 or MYH9 knockdown PDCs were generated by lentiviral transduction and selected by 1 µg/mL puromycin. All shRNA sequences are listed as follows: shCFL1-1: […], shCFL1-2: […], shMYH9-1: GCAAACCTCGAGAAGGCAA, shMYH9-2: GAAGTCAGCTCCCTAAAGA.

The test system of data set [3] is F-actin. Description: F-actin staining and G-actin/F-actin assay in T2-4 cells. It counts as cell-based. Particulars: 0.3 μM, 4 h, 8 h and 12 h. How it is done:
F-actin isolation was performed according to the instructions of the G-actin/F-actin assay (Cytoskeleton, Inc.). Briefly, cells were lysed in LAS2 buffer (Cytoskeleton, Inc.). The lysates were centrifuged (5 min at 1000 rpm) to pellet undisrupted cells, and then 100 µl of the supernatant was ultracentrifuged at 37 °C (100,000 × g) for 1 h to separate F-actin from soluble G-actin. The F-actin pellet was solubilized by incubation in 100 μL of F-actin depolymerization buffer for 1 h. The soluble F-actin and G-actin fractions were subsequently analyzed by immunoblotting with a mouse monoclonal anti-actin antibody (Cytoskeleton, Inc.).
Representative images of three wells are shown, and the scale bar represents 500 μm. h The apoptosis assay was conducted on T2-4 cells treated with DMSO, GA-amide (0.3 μM), jas (50 nM), and jas (50 nM jas was pretreated for 12 hours) in combination with GA-amide (0.3 μM) for 4 hours. The data were presented as the mean ± SEM (n = 3) and analyzed using one-way ANOVA analysis. Statistical significance is denoted as *P <0.05, **P <0.01, and ***P <0.001.

Data set [4] concerns PDCs. Description: Tumor sphere formation assay. The class given is cell-based, human. How it is done:
For the tumor sphere formation assay, cells were inoculated in 96-well plates at 600 cells/well in a volume of 100 μL. The tumor spheres with a diameter of 50–100 μm and a diameter of over 100 μm were counted separately under a microscope after 14 days. For the limiting dilution assay, cells were dissociated to generate a single-cell suspension, which was diluted along a gradient for seeding in a 96-well plate at concentrations ranging from 400 cells to 25 cells in a volume of 100 μL per well.

The subject of data set [5] is subcutaneous glioma PDX. Description: Subcutaneous PDX model of glioma (GBM1). It counts as in vivo, nude mice. How it is done:
Fig. 2 The BBB permeability and tumor suppressor ability of GA-amide compared with TMZ. GA-amide (a) or TMZ (b) concentration in the tumor area and normal brain tissue following a single injection of GA-amide (10 mg/kg, i.v.) or TMZ (10 mg/kg, i.v.). The data are presented as the means ± SEMs (n = 3). c Western blot analysis of the expression of TrkA in mouse tumor tissues (T) and normal brain tissues (N), n = 4. d Western blot analysis of glycosylated TrkA expression in human normal brain tissues (N) and glioma tissues of different grades. e Time curve of GA-amide and TMZ treatment in a cell viability assay (MTS) in T2-4, GSC2 and T12-1 cells. f–h A PDX mouse model was established, and the mice were treated with vehicle (control, n = 9), 2 mg/kg GA-amide (n = 9), 2 mg/kg GAC (n = 9) or […] TMZ (n = 8) by i.p. injection daily for 10 days. A summary photograph is presented in (f), statistical results in (g) and the body weights of mice in (h); the mean ± SEMs are shown. n.s: P ≥ 0.05, *P < 0.05, **P < 0.01 and ***P < 0.001 compared with the control group by one-way ANOVA at each time point
Male nude mice aged 5–6 weeks were selected for establishment of the in vivo glioma mouse models. For the PDX models, the tumor sample will be soaked in HBSS solution on ice and transferred from the hospital to the laboratory. Patient-related information was shown in Supplementary Table 4). For the subcutaneous PDX models, the isometric fresh GBM tumor (GBM1) specimens were implanted s.c. into the flank of a nude mouse. Then, the mice were treated with GA-amide (2 mg/kg i.p.), gambogic acid (2 mg/kg i.p.), TMZ (65 mg/kg i.p., Selleck) or vehicle after the tumors grew to 100 mm^3. The mouse body weights were measured, and tumor volumes were calculated using the formula L × W^2/2. After treatment, the xenografts were harvested and photographed.

Regarding `CC(C)=CCC[C@]1(C)C=Cc2c(O)c3c(c(CC=C(C)C)c2O1)O[C@]12C(=C[C@@H]4CC1C(C)(C)O[C@@]2(C/C=C(/C)C(N)=O)C4=O)C3=O` [GA-amide, gambogic amide], the “number of invading cells (transwell)” value in data set [1] is “significant decrease in the number of invading PDCs and GSCs”. Moreover, in data set [2], the “suppression of cell proliferation in WDR1 knockout cells” value is listed as “decreased suppressive effects of GA-amide on cell proliferation”. For the same compound, the F-actin content result in data set [3] is recorded as “decreased content of F-actin at the cell edge”. Also, the “tertiary tumor sphere formation” value in data set [4] (T2-4 and T12-2, cells from secondary spheres pretreated 4 h) is “still suppressed”. The “secondary tumor sphere formation potential” value in data set [4] (pretreatment 4 h with 0.3 μM, 1 μM and 3 μM) is reported as “completely abolished”. Moreover, in data set [5] (2 mg/kg i.p. daily for 10 days), the “body weight of mice” value is “did not cause the loss of body weight” and the “tumor volume versus control” value is “significantly decreased compared with those in the control group”. Also, the “Ki67, CD133 and cleaved caspase3 in tumor sections (immunohistology)” value in data set [5] (PDX tumors at endpoint, 10 days treatment) is “decreased expression of Ki67 and the GSC marker prominin 1 (CD133) as well as an increased level of cleaved caspase3”. Besides, in data set [5] (after GA-amide treatment), the “histology of liver, kidney and small intestine (H&E)” value is “no discernible abnormalities”.
